“And” between values parts separate entries of the source, which are not always exact repeats. Equal entries are not always repeated.
Legend:
[1] = Biodistribution in healthy male rats; format: in vivo, rats (Lewis); details: rat
Procedure: Biodistribution was studied in ten healthy male rats (Lewis, Liverpool Hospital Animal Facility) aged 6-8 weeks. Five rats were administered with ^68Ga-NODAGA-GSAO. The rats were housed singly in a cage with impervious absorbent matting and at 1 hour post administration 5 rats were sacrificed by lethal carbon dioxide overdose. Immediately post mortem, blood was sampled via cardiac puncture. Two of the 5 rats were then imaged by PET CT (GE Discovery 710). The PET CT scan comprised a CT scan (80 kVp, 20 mA, helical mode, reconstructed slice thickness of 0.625 mm) followed by a PET scan (2 bed positions, 7.5 min/bed position, 256×256 reconstruction matrix, slice thickness 3.27 mm).
All of the rats were then dissected, organs sampled and weighed and counted in a gamma counter, and the cpm value converted to MBq using a known standard. The activity in the remaining carcass was measured in a dose calibrator.
Biodistribution studies were performed in a further 5 rats at two hours following ^68Ga-NODAGA GSAO administration.
Injected activity was corrected by measuring residual activity left in the syringe after injection in a dose calibrator. To correct for any dose extravasated at the injection site the tail was harvested and the activity in the tail was subtracted from the administered activity. All calculations were decayed corrected using the injection time as the reference.
Biodistribution was expressed as % ID/g and % ID/organ. % retained activity was the sum total of all activity in all individually harvested organs as well as the activity in the remaining carcass as a percentage of the injected dose. % recovered activity was the sum total of all activity in all individually harvested organs as well as the activity in the remaining carcass and excreted activity in the impervious matting as a percentage of the injected dose.

[2] = Human studies: radiation dosimetry of subjects 1-4 (Olinda/EXM); format: in vivo; details: subjects 1-4 = the 7th table-the 10th table
Procedure: For subjects 1-4, radiation dosimetry was calculated using Olinda/EXM based on the organ biodistribution discussed above.
Tables 7-10 show the estimate for radiation dosimetry for subjects 1˜4 of 200 MBq of ^68Ga NODAGA GSAO for individual organs and for the whole body in mSv/MBq (EDE cont.=effective dose equivalent contribution, ED Cont.=effective dose contribution). The estimated whole-body dose from the one (1) low dose CT and two (2) ultra-low dose CTs was 9.2 mSv.

O=C(O)CNC(=O)[C@H](CSCC(=O)Nc1ccc([As](O)O)cc1)NC(=O)CC[C@H](NC(=O)CCC1C(=O)[O][68Ga]2[O]C(=O)CN3CCN(CCN1CC3)CC(=O)[O]2)C(=O)O (stereo partly drawn) [^68Ga-NODAGA-GSAO]
injected activity retained within the animal ([1]; 1 hour): 32.4% | mean total recovered activity ([1]; 1 hour): 84.9 % of injected activity | injected activity retained within the animal ([1]; 2 hours): 21.4% | total recovered activity ([1]; 2 hours): 75.3 % of injected activity | Alpha dose ([2]; Adrenals): 0.00E+00 mSv/MBq | ED Cont. ([2]; Adrenals): 7.09E−05 mSv/MBq and 7.38E−05 mSv/MBq and 4.84E−05 mSv/MBq and 8.93E−05 mSv/MBq | Photon dose ([2]; Adrenals): 4.52E−03 mSv/MBq and 5.24E−03 mSv/MBq and 3.71E−03 mSv/MBq and 4.86E−03 mSv/MBq | Total dose ([2]; Adrenals): 1.42E−02 mSv/MBq and 1.48E−02 mSv/MBq and 9.68E−03 mSv/MBq and 1.79E−02 mSv/MBq | Alpha dose ([2]; Brain): 0.00E+00 mSv/MBq | Beta dose ([2]; Brain): 6.82E−04 mSv/MBq and 6.40E−04 mSv/MBq and 6.13E−04 mSv/MBq and 7.79E−04 mSv/MBq | ED Cont. ([2]; Brain): 9.10E−06 mSv/MBq and 1.05E−05 mSv/MBq and 7.39E−06 mSv/MBq and 1.00E−05 mSv/MBq | EDE Cont. ([2]; Brain): 0.00E+00 mSv/MBq | Photon dose ([2]; Brain): 1.14E−03 mSv/MBq and 1.46E−03 mSv/MBq and 8.65E−04 mSv/MBq and 1.23E−03 mSv/MBq | Total dose ([2]; Brain): 1.82E−03 mSv/MBq and 2.10E−03 mSv/MBq and 1.48E−03 mSv/MBq and 2.01E−03 mSv/MBq | Alpha dose ([2]; Breasts): 0.00E+00 mSv/MBq | Photon dose ([2]; Breasts): 2.11E−03 mSv/MBq and 2.76E−03 mSv/MBq and 1.59E−03 mSv/MBq and 2.25E−03 mSv/MBq | Alpha dose ([2]; Gallbladder Wall): 0.00E+00 mSv/MBq | ED Cont. ([2]; Gallbladder Wall): 0.00E+00 mSv/MBq | EDE Cont. ([2]; Gallbladder Wall): 0.00E+00 mSv/MBq | Photon dose ([2]; Gallbladder Wall): 4.59E−03 mSv/MBq and 5.27E−03 mSv/MBq and 4.07E−03 mSv/MBq and 4.46E−03 mSv/MBq | Total dose ([2]; Gallbladder Wall): 8.07E−03 mSv/MBq and 9.96E−03 mSv/MBq and 6.09E−03 mSv/MBq and 8.56E−03 mSv/MBq | Alpha dose ([2]; Heart Wall): 0.00E+00 mSv/MBq | Beta dose ([2]; Heart Wall): 6.65E−03 mSv/MBq and 8.27E−03 mSv/MBq and 4.65E−03 mSv/MBq and 7.57E−03 mSv/MBq | ED Cont. ([2]; Heart Wall): 0.00E+00 mSv/MBq | EDE Cont. ([2]; Heart Wall): 0.00E+00 mSv/MBq | Photon dose ([2]; Heart Wall): 3.57E−03 mSv/MBq and 4.29E−03 mSv/MBq and 2.82E−03 mSv/MBq and 3.84E−03 mSv/MBq | Total dose ([2]; Heart Wall): 1.02E−02 mSv/MBq and 1.26E−02 mSv/MBq and 7.48E−03 mSv/MBq and 1.14E−02 mSv/MBq | Alpha dose ([2]; Kidneys): 0.00E+00 mSv/MBq | Beta dose ([2]; Kidneys): 4.32E−02 mSv/MBq and 4.21E−02 mSv/MBq and 4.45E−02 mSv/MBq and 4.30E−02 mSv/MBq | ED Cont. ([2]; Kidneys): 2.52E−04 mSv/MBq and 2.48E−04 mSv/MBq and 2.57E−04 mSv/MBq | EDE Cont. ([2]; Kidneys): 3.03E−03 mSv/MBq and 2.98E−03 mSv/MBq and 3.08E−03 mSv/MBq and 3.02E−03 mSv/MBq | Photon dose ([2]; Kidneys): 7.22E−03 mSv/MBq and 7.59E−03 mSv/MBq and 6.83E−03 mSv/MBq and 7.33E−03 mSv/MBq | Total dose ([2]; Kidneys): 5.04E−02 mSv/MBq and 4.97E−02 mSv/MBq and 5.13E−02 mSv/MBq and 5.03E−02 mSv/MBq | Alpha dose ([2]; LLI Wall): 0.00E+00 mSv/MBq | ED Cont. ([2]; LLI Wall): 2.43E−03 mSv/MBq and 2.50E−03 mSv/MBq and 2.44E−03 mSv/MBq and 1.48E−03 mSv/MBq | Photon dose ([2]; LLI Wall): 7.31E−03 mSv/MBq and 7.16E−03 mSv/MBq and 5.96E−03 mSv/MBq and 8.79E−03 mSv/MBq | Total dose ([2]; LLI Wall): 2.02E−02 mSv/MBq and 2.08E−02 mSv/MBq and 2.03E−02 mSv/MBq and 1.23E−02 mSv/MBq | Alpha dose ([2]; Liver): 0.00E+00 mSv/MBq | Beta dose ([2]; Liver): 1.27E−02 mSv/MBq and 1.45E−02 mSv/MBq and 1.20E−02 mSv/MBq and 1.16E−02 mSv/MBq | ED Cont. ([2]; Liver): 8.78E−04 mSv/MBq and 1.00E−03 mSv/MBq and 8.20E−04 mSv/MBq and 8.13E−04 mSv/MBq | Photon dose ([2]; Liver): 4.84E−03 mSv/MBq and 5.51E−03 mSv/MBq and 4.36E−03 mSv/MBq and 4.71E−03 mSv/MBq | Total dose ([2]; Liver): 1.76E−02 mSv/MBq and 2.00E−02 mSv/MBq and 1.64E−02 mSv/MBq and 1.63E−02 mSv/MBq | Alpha dose ([2]; Lungs): 0.00E+00 mSv/MBq | Beta dose ([2]; Lungs): 5.19E−03 mSv/MBq and 5.73E−03 mSv/MBq and 5.16E−03 mSv/MBq and 4.82E−03 mSv/MBq | ED Cont. ([2]; Lungs): 9.74E−04 mSv/MBq and 1.11E−03 mSv/MBq and 9.04E−04 mSv/MBq and 9.57E−04 mSv/MBq | EDE Cont. ([2]; Lungs): 9.74E−04 mSv/MBq and 1.11E−03 mSv/MBq and 9.04E−04 mSv/MBq and 9.57E−04 mSv/MBq | Photon dose ([2]; Lungs): 2.93E−03 mSv/MBq and 3.54E−03 mSv/MBq and 2.37E−03 mSv/MBq and 3.15E−03 mSv/MBq | Total dose ([2]; Lungs): 8.12E−03 mSv/MBq and 9.27E−03 mSv/MBq and 7.53E−03 mSv/MBq and 7.97E−03 mSv/MBq | Alpha dose ([2]; Muscle): 0.00E+00 mSv/MBq | Beta dose ([2]; Muscle): 6.19E−03 mSv/MBq and 6.08E−03 mSv/MBq and 5.15E−03 mSv/MBq and 7.68E−03 mSv/MBq | ED Cont. ([2]; Muscle): 4.85E−05 mSv/MBq and 4.95E−05 mSv/MBq and 3.99E−05 mSv/MBq and 5.88E−05 mSv/MBq | EDE Cont. ([2]; Muscle): 0.00E+00 mSv/MBq | Photon dose ([2]; Muscle): 3.51E−03 mSv/MBq and 3.83E−03 mSv/MBq and 2.83E−03 mSv/MBq and 4.07E−03 mSv/MBq | Total dose ([2]; Muscle): 9.71E−03 mSv/MBq and 9.91E−03 mSv/MBq and 7.98E−03 mSv/MBq and 1.18E−02 mSv/MBq | Alpha dose ([2]; Osteogenic Cells): 0.00E+00 mSv/MBq | Photon dose ([2]; Osteogenic Cells): 3.47E−03 mSv/MBq and 4.14E−03 mSv/MBq and 2.74E−03 mSv/MBq and 3.80E−03 mSv/MBq | Alpha dose ([2]; Ovaries): 0.00E+00 mSv/MBq | Photon dose ([2]; Ovaries): 7.00E−03 mSv/MBq and 6.95E−03 mSv/MBq and 5.52E−03 mSv/MBq and 8.79E−03 mSv/MBq | Total dose ([2]; Ovaries): 1.01E−02 mSv/MBq and 1.16E−02 mSv/MBq and 7.54E−03 mSv/MBq and 1.23E−02 mSv/MBq | Alpha dose ([2]; Pancreas): 0.00E+00 mSv/MBq | Beta dose ([2]; Pancreas): 1.20E−02 mSv/MBq and 1.62E−02 mSv/MBq and 1.13E−02 mSv/MBq and 1.18E−02 mSv/MBq | ED Cont. ([2]; Pancreas): 8.46E−05 mSv/MBq and 1.10E−04 mSv/MBq and 7.72E−05 mSv/MBq and 8.44E−05 mSv/MBq | EDE Cont. ([2]; Pancreas): 8.14E−04 mSv/MBq and 1.32E−03 mSv/MBq and 9.27E−04 mSv/MBq and 1.01E−03 mSv/MBq

— patent publication US20250269072A1, “PROCESSES FOR PREPARING RADIOLABELLED CONJUGATES” (CENTENARY INSTITUTE OF CANCER MEDICINE AND CELL BIOLOGY, priority 2021, published 2025)
